From patent publication US20070203212A1, “METHOD OF TREATING OSTEOARTHRITIS” (WARNER-LAMBERT COMPANY, priority 2002, published 2007)

Columns and labels:
[1] = tested on: monosodium iodoacetate (MIA)-induced osteoarthritis; experiment: MIA rat model, acute single oral dose: change in hind paw weight distribution (joint pain); type: in vivo; settings: for Day 7 2 hr. (% ± SEM) inhibition of MIA-induced change in hind paw weight distribution / Day 7 4 hr. (% ± SEM) inhibition of MIA-induced change in hind paw weight distribution / Day 7 6 hr. (% ± SEM) inhibition of MIA-induced change in hind paw weight distribution / Day 14 2 hr. (% ± SEM) inhibition of MIA-induced change in hind paw weight distribution / Day 14 4 hr. (% ± SEM) inhibition of MIA-induced change in hind paw weight distribution / Day 14 6 hr. (% ± SEM) inhibition of MIA-induced change in hind paw weight distribution: single oral dose 30 mg/kg; for Day 7 2 hr. (% ± SEM) inhibition of MIA-induced change in hind paw weight distribution: Day 7, 2 hours post dose; for Day 7 4 hr. (% ± SEM) inhibition of MIA-induced change in hind paw weight distribution: Day 7, 4 hours post dose; for Day 7 6 hr. (% ± SEM) inhibition of MIA-induced change in hind paw weight distribution: Day 7, 6 hours post dose; for Day 14 2 hr. (% ± SEM) inhibition of MIA-induced change in hind paw weight distribution: Day 14, 2 hours post dose; for Day 14 4 hr. (% ± SEM) inhibition of MIA-induced change in hind paw weight distribution: Day 14, 4 hours post dose; for Day 14 6 hr. (% ± SEM) inhibition of MIA-induced change in hind paw weight distribution: Day 14, 6 hours post dose
Method: (§1) It should be appreciated that in Biological Methods 1, 2, 4, and 5 below, hind paw weight bearing differentials between the paw of the limb having the control joint (in animals administered test compound vehicle only) and the paw of the limb having the contralateral test joint (in control or inducement animals administered test compound vehicle only and in treatment animals administered test compound dissolved in test compound vehicle) were determined using an incapacitance tester, model 2KG (Linton Instrumentation, Norfolk, United Kingdom). The incapacitance tester has a chamber on top with an outwardly sloping front wall that supports a rat's front limbs, and two weight sensing pads, one for each hind paw, that facilitates this determination. The hind paw weight bearing differentials were expressed in grams and calculated as follows: (the average weight in grams placed on the control limb minus the average weight in grams placed on the contralateral test limb for each of the inducement or treatment animals) minus (the average weight in grams placed on the control limb minus the average weight in grams placed on the contralateral test limb for each of the control animals). All results were statistically analyzed by comparing the average results for an induction or treatment group with the average result for its control group at the same time point using analysis of covariance (“ANCOVA”) followed by the Hoehberg's procedure and those with statistical significance had p<0.05 unless otherwise noted.
The rats were anesthetized with 5% volume/volume (“v/v”) isoflurane gas and maintained with 2% v/v isoflurane gas. The anesthetized rats were given a single intra-articular injection of 1 mg of MIA through the infrapatellar ligament of the right knee. MIA was dissolved in physiologic saline and administered in a volume of 50 μL. The contralateral control knee was injected with 50 μL of physiologic saline. Administration of isoflurane gas was discontinued, and the rats became fully conscious about 5 minutes later.
Shifts in hind paw weight distribution from the right to the left hind paws supporting the right (arthritic) and the left (contralateral control) hind leg knee joints were utilized as an index of joint pain and as a measure of compound efficacy. An incapacitance tester (Model 2KG, Linton Instrumentation, UK) was employed for determination of hind paw weight distribution. Each data point is the mean of three readings of 5 seconds duration.
CI-1027 (i.e., 6-(5-carboxy-5-methyl-hexyloxy)-2,2-dimethyl-hexanoic acid, calcium salt) was dissolved in hydroxypropylmethylcellulose (“HPMC”) vehicle (0.05% HPMC+0.2% Tween 80; compound amount was adjusted based on the percent of free acid, i.e., 6-(5-carboxy-5-methyl-hexyloxy)-2,2-dimethyl-hexanoic acid).
[…] Rats were then given a single, 10, 30, or 100 mg/kg, dose of CI-1027 via oral gavage (PO). Changes in hind paw weight distribution were determined 2, 4 and 6 hours post-compound administration.
6-(5-carboxy-5-methyl-hexyloxy)-2,2-dimethyl-hexanoic acid, calcium salt (“CI-1027”) and rofecoxib was tested in the rat MIA model in an acute dosing paradigm as described previously. MIA was injected into the right knee and saline into the left knee of all rats on Day 0. […] Two hours later, the rats were reassessed. The results for inhibition of pain, expressed as a percentage±standard error of the mean, are shown below in Table 5. The percent inhibition of pain was determined as described above in Biological Method 1. […] N=8 rats per group.

[2] = tested on: carrageenan-induced thermal hyperalgesia; experiment: Carrageenan-induced thermal hyperalgesia (CITH), paw withdrawal latency; type: in vivo, rat; settings: Day 1
Method: Male Sprague Dawley rats (200-300 g), obtained from Charles River, were housed in groups of 2 under a 12 hour light/dark cycle with food and water ad libitum. Animals were allowed to acclimate to the test room one hour prior to testing.
Thermal hyperalgesia was assessed using the rat plantar test (apparatus from Univ. California, San Diego) following a modified method of Hargreaves et al., 1988. Rats were habituated to the apparatus, which consisted of three perspex boxes that individually housed […] on an elevated glass table. A mobile radiant heat source (halogen lamp) was located under the glass table and focused onto the hind paw. Paw withdrawal latencies (PWL) were recorded in seconds (“s”). An automatic cut off point of 22.5 s was set to prevent tissue damage. The mean of 2-3 PWL was taken at each time point for both hind paws of each animal. The apparatus was calibrated to give a PWL of approximately 10 s before carrageenan administration.
After basal PWL were determined, animals receive an intraplantar 100 μL of 10 mg/mL) into the right hind paw. Lambda carrageenan (Sigma Chemical Co.) was dissolved in isotonic saline 5 minutes prior to injecting. PWL were reassessed following the same protocol 2 hours post carrageenan (this time point represented the start of peak hyperalgesia) to ascertain that hyperalgesia had developed. 6-(5-Carboxy-5-methyl-hexyloxy)-2,2-dimethyl-hexanoic acid, calcium salt was then administered orally via oral dosing needles 2.5 hours post carrageenan injection, and PWL were taken again at 30- or 60-minute intervals post drug administration for 6 hours.
Data consisted of the mean of 2-3 reads/paw for individual animals. Group data was the compiled individual means. Percent inhibition was calculated as follows for each time point: (mean drug treated−mean control)/(mean baseline−mean control)×100.

[3] = tested on: human recombinant IL-6/IL-6sR induced joint pain; experiment: IL-6 with IL-6 soluble receptor induced joint pain in rat; type: in vivo; settings: single oral dose 30 mg/kg
Method: as §1
Human recombinant IL-6 (100 ng per rat; R&D Systems, Minneapolis, Minn.) was incubated at room temperature with human recombinant IL-6 soluble receptor (300 ng per rat; R&D Systems, Minneapolis, Minn.) in phosphate buffered saline (“PBS”) for 15 minutes prior to injection. Rats were anesthetized with 5% volume/volume (“v/v”) isoflurane gas and maintained with 2% v/v isoflurane gas. The anesthetized rats were given a single intra-articular injection of IL-6/WL-6sR through the infrapatellar ligament of the right knee in a volume of 50 μL. The contralateral control knee was injected with 50 μL of PBS. Administration of isoflurane gas was discontinued, and the rats became fully conscious about 5 minutes later.
Shifts in hind paw weight distribution from the right (arthritic) to the left (contralateral control) paws were utilized as an index of joint pain and as a measure of compound efficacy. An incapacitance tester (Model 2KG, Linton Instrumentation, UK) was employed for determination of hind paw weight distribution. Each data point is the mean of three, 5-second readings.
CI-1027 was dissolved in BPMC vehicle as described above. Baseline changes in hind paw weight distribution readings were determined one day prior to injection of IL-6/IL-6sR. On the day of the experiment (Day 0), a single dose of CI-1027 (10, 30 or 100 mg/kg) was given via oral gavage 3 hours prior to injection of IL-6/IL-6sR (n=10 rats per group). Changes in hind paw weight distribution were determined one, three, and six hours after injection of IL-6/IL-6sR.
In Table 4 below, data from the method of Biological Method 5 are expressed as a percent inhibition of a change in hind paw weight distribution ± the standard error of the mean. The percents inhibition were calculated as follows. Percent inhibition of a change in hind paw weight distribution [formula] wherein: ΔWC is the hind-paw weight differential between the healthy limb and the hrIL-6+ hrIL-6sR injected limb of the control animal group administered vehicle alone, as measured at time 1, 3, or 6 hours post injection; and
ΔWG is the hind-paw weight differential between the healthy limb and the hrIL-6+ hrIL-6sR injected limb of a treatment animal group as measured at time 1, 3, or 6 hours post injection.

[4] = tested on: monoclonal antibody-induced arthritis; experiment: Monoclonal antibody-induced arthritis (MAIA) mouse model, footpad and ankle swelling; type: in vivo; parameters: footpad and ankle swelling: dose or concentration left out as unconfirmed; settings: BALB/c mice
Method: In a typical MAIA experiment, groups of four mice were injected intraperitoneally (“i.p.”) with 0.4 mL (BALB/c and DBA/1 strains) or 0.8 mL (C57BL/6, 129X1/SvJ, C3H/HeJ, and C3H/FeJ strains) with a 10 mg/mL solution of Arthrogen-CIA Monoclonal Antibody Blend (Chemicon International, Inc.). Two days later, the mice were injected i.p. with 0.2 mL of a 0.25 mg/mL solution of LPS (lipopolysaccharide form Escherichia coli (“E. coli”) strain 0111B4) in PBS. Footpad and ankle size was assessed using a Dyer Digital Caliper (#655-030-4916) on the day of mAb injection, and every two days following LPS injection.

Row | SMILES | Day 7 2 hr. (% ± SEM) inhibition of MIA-induced change in hind paw weight distribution [1] | Day 7 4 hr. (% ± SEM) inhibition of MIA-induced change in hind paw weight distribution [1] | Day 7 6 hr. (% ± SEM) inhibition of MIA-induced change in hind paw weight distribution [1] | Day 14 2 hr. (% ± SEM) inhibition of MIA-induced change in hind paw weight distribution [1] | Day 14 4 hr. (% ± SEM) inhibition of MIA-induced change in hind paw weight distribution [1] | Day 14 6 hr. (% ± SEM) inhibition of MIA-induced change in hind paw weight distribution [1] | CITH (%) percentage inhibition, paw withdrawal latency ([2]; single oral dose 30 mg/kg) | CITH (%) percentage inhibition, paw withdrawal latency ([2]; single oral dose 100 mg/kg) | 1 hr. (% ± SEM) inhibition of (IL-6/IL-6sR)-induced change in hind paw weight distribution ([3]; Day 1, 1 hour post injection of IL-6/IL-6sR) | 3 hr. (% ± SEM) inhibition of (IL-6/IL-6sR)-induced change in hind paw weight distribution ([3]; Day 1, 3 hours post injection of IL-6/IL-6sR) | 6 hr. (% ± SEM) inhibition of (IL-6/IL-6sR)-induced change in hind paw weight distribution ([3]; Day 1, 6 hours post injection of IL-6/IL-6sR) | Mean pain alleviation at 2 hours post administration (% ± SEM) ([1]; rofecoxib 3 mg/kg PO alone, Day 14) | footpad and ankle swelling [4]
1 | CC(C)(CCCCCCCCCC(C)(C)C(=O)O)C(=O)O [A4, 2,2,12,12-tetramethyltridecanedioic acid] | 25 ± 5% | 38 ± 7% | 43 ± 6% | 35 ± 6% | 29 ± 8% | 55 ± 7% | 118% | 115% | 70 ± 9% | 79 ± 5% | 26 ± 6% |  | 
2 | CS(=O)(=O)c1ccc(C2=C(c3ccccc3)C(=O)OC2)cc1 [Rofecoxib, reference compound] |  |  |  |  |  |  |  |  |  |  |  | 23 ± 7% | 
3 | CN(Cc1cnc2nc(N)nc(N)c2n1)c1ccc(C(=O)N[C@@H](CCC(=O)O)C(=O)O)cc1 [methotrexate, N-[4-[[(2,4-diamino-6-pteridinyl)methyl]methylamino]benzoyl]-L-glutamic acid, reference compound] |  |  |  |  |  |  |  |  |  |  |  |  | significantly inhibit footpad and ankle swelling
4 | CC(C)(CCCCCOCCCCCC(C)(C)C(=O)O)C(=O)O [A1, 7,7′-oxybis(2,2-dimethylheptanoic acid)] | 50 ± 11% | 15 ± 14% |  | −3 ± 15% | −9 ± 17% |  | 22% |  |  |  |  |  | 
5 | CC(C)(CCOCCC(C)(C)C(=O)O)C(=O)O [A3, 4,4′-oxybis(2,2-dimethylbutanoic acid)] | 20 ± 4% | 34 ± 5% | 81 ± 6% | 33 ± 7% | 36 ± 3% | 27 ± 9% | 20% |  |  |  |  |  | 
6 | CC(C)(CCCOCCCC(C)(C)C(=O)O)C(=O)O [A2, 5,5′-oxybis(2,2-dimethylpentanoic acid)] | −11 ± 15^ % | 16 ± 15% |  | 9 ± 13% | 9 ± 20% |  | −3% |  |  |  |  |  | 
